The text below walks through data of ChEMBL document CHEMBL1157994, “Three new metabolites from marine-derived fungi of the genera coniothyrium and microsphaeropsis” (J Nat Prod, 1999).

Calls of active or inactive are those of the source. The calls are words filed in the database; no cut-off is given here.

What all share (format): functional, organism-based
In one assay the test system is Microbotryum violaceum. Kind of assay: Antifungal activity against Ustilago violacea at 50 ug by agar diffusion test. For orientation: In agar diffusion tests the substance spreads into inoculated agar from a disc or well.
In assay [1] the test system is Aspergillus pseudoglaucus. Kind of assay: Antifungal activity against Eurotium repens at 50 ug by agar diffusion test.
A further assay relates to Priestia megaterium. As to the kind of experiment: […] activity against Bacillus megaterium at 50 ug by agar diffusion test.
A further assay has as its system Mycotypha microspora. Kind of assay: Antifungal activity against Mycotypha microspora at 50 ug by agar diffusion test.

In the case of `C[C@H]1OC(=O)c2c(O)cccc2[C@H]1O`, the outcome (in the assay on Microbotryum violaceum; in assay [1]) was Active. Turning to `COc1cc(O)c2c(c1)C[C@@H](C)OC2=O`, in assay [1], the result was Active. On the same count and under the same terms, the entry for `COc1cc2c(c(O)c1Cl)C(=O)O[C@H](C)C2` is “Active”. Consider `O=C1CCC(O)c2cccc(O)c21` (stereo not drawn), for which the result (in the assay on Microbotryum violaceum; in assay [1]) was Active. Regarding `OCc1ccco1`, in the assay on Priestia megaterium, the outcome was Active. For the molecule `C[C@@H]1Cc2cccc(O)c2C(=O)O1`, in assay [1], the result was Active. Regarding `CC(=O)[C@@H](C)c1cc(O)cc(O)c1`, the result with Mycotypha microspora and in the assay with Microbotryum violaceum was Active.

With `C[C@H]1OC(=O)c2c(O)cccc2[C@@H]1O`, in the assay with Microbotryum violaceum, the outcome was Active. For the molecule `CO[C@]12C=C3C=CC(=O)[C@@H](C)[C@@]3(C)C[C@@]1(O)[C@H](C)CO2`, the result (in the assay on Microbotryum violaceum; in assay [1]) was Active.
